Test results taken from US12157741B2, “Macrocyclic inhibitors of DYRK1A” (DANA-FARBER CANCER INSTITUTE, INC., priority 2018, dated 2024).

Assays:
Type in all cases: binding
Settings in all cases: compound 1 uM
various enzymes [1] = biological target: various enzymes (Homo sapiens, UniProt P30291)
Method: (§1) Ambit profiling was conducted in accordance with the manufacturer's instructions.

various enzymes [2] = biological target: various enzymes (Homo sapiens, UniProt Q02156)
Method: as §1

various enzymes [3] = biological target: various enzymes (Homo sapiens, UniProt Q9H3Y6)
Method: as §1

various enzymes [4] = biological target: various enzymes (Homo sapiens, UniProt Q9UPZ9)
Method: as §1

various enzymes [5] = biological target: various enzymes (Homo sapiens, UniProt Q6ZWH5)
Method: as §1

various enzymes [6] = biological target: various enzymes (Homo sapiens, UniProt P11309)
Method: as §1

various enzymes [7] = biological target: various enzymes (Homo sapiens, UniProt P06239)
Method: as §1

various enzymes [8] = biological target: various enzymes (Homo sapiens, UniProt O14730)
Method: as §1

various enzymes [9] = biological target: various enzymes (Homo sapiens, UniProt O15146)
Method: as §1

various enzymes [10] = biological target: various enzymes (Homo sapiens, UniProt Q9UQ88)
Method: as §1

various enzymes [11] = biological target: various enzymes (Homo sapiens, UniProt P51957)
Method: as §1

various enzymes [12] = biological target: T1, various enzymes (Homo sapiens, UniProt Q8IVH8)
T1 sequence (Q8IVH8 1-894): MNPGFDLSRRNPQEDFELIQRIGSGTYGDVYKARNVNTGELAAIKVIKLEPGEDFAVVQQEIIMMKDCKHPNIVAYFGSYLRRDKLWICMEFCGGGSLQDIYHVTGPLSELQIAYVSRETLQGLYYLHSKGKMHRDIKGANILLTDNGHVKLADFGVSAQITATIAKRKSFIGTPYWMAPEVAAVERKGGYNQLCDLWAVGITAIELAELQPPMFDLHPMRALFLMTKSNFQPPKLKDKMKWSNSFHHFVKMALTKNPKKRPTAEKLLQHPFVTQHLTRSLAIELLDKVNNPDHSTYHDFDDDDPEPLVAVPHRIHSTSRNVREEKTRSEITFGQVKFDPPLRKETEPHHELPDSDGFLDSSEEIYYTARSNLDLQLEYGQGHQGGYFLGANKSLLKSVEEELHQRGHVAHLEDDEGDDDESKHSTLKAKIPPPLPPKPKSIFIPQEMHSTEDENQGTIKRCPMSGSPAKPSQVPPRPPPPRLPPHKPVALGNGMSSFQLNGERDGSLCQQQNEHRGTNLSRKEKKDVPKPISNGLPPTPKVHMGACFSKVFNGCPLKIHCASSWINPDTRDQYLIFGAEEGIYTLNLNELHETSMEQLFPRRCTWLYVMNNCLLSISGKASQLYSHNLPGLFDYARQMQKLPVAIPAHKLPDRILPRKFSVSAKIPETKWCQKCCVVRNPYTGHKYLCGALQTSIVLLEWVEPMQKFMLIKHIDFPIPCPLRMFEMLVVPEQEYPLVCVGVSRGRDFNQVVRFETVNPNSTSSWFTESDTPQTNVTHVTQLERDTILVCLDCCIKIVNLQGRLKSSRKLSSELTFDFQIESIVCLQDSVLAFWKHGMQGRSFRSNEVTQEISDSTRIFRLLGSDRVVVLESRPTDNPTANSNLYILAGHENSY
Method: as §1

various enzymes [13] = biological target: various enzymes (Homo sapiens, UniProt Q13177)
Method: as §1

various enzymes [14] = biological target: various enzymes (Homo sapiens, UniProt Q8TD19)
Method: as §1

various enzymes [15] = biological target: various enzymes (Homo sapiens, UniProt Q15418)
Method: as §1

various enzymes [16] = biological target: various enzymes (Homo sapiens, UniProt Q14164)
Method: as §1

various enzymes [17] = biological target: various enzymes (Homo sapiens, UniProt Q86YV6)
Method: as §1

various enzymes [18] = biological target: T2, various enzymes (Homo sapiens, UniProt O75385)
T2 sequence (O75385 1-1050): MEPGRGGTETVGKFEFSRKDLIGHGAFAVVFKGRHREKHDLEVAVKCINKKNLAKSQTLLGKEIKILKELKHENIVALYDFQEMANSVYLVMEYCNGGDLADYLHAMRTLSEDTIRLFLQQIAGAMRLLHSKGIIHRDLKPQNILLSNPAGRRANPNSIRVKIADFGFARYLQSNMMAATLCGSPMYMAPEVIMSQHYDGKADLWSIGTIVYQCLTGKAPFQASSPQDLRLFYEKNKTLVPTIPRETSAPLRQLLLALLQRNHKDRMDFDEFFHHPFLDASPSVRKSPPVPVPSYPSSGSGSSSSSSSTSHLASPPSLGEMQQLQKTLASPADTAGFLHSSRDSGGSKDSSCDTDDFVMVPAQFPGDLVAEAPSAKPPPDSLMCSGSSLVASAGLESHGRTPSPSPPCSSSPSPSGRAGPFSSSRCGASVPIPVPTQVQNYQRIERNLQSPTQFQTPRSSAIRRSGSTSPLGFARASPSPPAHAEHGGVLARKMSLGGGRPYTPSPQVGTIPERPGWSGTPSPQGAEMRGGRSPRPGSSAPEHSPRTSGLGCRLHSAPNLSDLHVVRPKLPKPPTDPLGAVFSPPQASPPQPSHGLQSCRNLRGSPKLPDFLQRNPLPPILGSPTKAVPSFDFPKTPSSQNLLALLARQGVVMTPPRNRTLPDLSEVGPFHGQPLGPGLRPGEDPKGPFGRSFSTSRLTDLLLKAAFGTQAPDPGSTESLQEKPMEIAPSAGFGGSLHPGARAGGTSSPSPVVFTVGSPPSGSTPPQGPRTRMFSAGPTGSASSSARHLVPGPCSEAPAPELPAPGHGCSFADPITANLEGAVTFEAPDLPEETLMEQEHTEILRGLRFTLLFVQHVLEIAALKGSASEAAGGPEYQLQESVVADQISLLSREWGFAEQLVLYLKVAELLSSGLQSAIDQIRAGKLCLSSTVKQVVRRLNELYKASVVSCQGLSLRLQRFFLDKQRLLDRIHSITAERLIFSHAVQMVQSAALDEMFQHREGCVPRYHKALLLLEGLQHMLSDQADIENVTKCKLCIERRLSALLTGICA
Method: as §1

Sequence of various enzymes (Homo sapiens, UniProt Q15418) (Q15418 whole entry): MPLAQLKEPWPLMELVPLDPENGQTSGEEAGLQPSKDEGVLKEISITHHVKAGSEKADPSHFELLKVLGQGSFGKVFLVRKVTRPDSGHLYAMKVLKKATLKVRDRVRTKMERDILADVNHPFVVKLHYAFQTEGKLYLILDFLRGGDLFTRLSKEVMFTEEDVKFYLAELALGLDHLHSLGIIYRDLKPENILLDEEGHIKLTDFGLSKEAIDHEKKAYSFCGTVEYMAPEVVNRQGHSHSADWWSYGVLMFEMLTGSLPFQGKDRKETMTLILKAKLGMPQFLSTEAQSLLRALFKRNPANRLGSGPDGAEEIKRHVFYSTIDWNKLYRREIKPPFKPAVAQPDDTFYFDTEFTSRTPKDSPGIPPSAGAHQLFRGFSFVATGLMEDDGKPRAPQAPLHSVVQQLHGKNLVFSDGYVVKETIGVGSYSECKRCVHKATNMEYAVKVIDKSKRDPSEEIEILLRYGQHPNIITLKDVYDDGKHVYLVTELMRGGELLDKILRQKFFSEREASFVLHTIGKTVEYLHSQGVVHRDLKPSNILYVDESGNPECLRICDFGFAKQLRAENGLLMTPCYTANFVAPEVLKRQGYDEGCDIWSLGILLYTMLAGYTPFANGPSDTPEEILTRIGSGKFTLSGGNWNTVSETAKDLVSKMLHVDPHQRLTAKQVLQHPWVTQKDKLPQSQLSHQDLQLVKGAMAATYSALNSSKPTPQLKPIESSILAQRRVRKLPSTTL
Sequence of various enzymes (Homo sapiens, UniProt O14730) (O14730 whole entry): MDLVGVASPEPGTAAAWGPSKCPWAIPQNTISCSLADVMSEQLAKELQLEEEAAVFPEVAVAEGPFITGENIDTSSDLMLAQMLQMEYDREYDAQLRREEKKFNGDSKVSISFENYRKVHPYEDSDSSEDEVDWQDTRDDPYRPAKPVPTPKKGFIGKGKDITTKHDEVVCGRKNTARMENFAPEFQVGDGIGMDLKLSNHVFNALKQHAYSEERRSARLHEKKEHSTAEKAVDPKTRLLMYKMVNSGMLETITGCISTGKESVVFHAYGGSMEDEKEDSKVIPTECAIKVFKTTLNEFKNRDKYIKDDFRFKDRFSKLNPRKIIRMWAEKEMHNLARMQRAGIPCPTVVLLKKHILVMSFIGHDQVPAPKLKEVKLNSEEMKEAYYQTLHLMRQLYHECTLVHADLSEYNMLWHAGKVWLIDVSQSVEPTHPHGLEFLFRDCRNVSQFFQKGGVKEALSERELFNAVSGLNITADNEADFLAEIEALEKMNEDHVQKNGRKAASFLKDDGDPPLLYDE
Sequence of various enzymes (Homo sapiens, UniProt Q9H3Y6) (Q9H3Y6 whole entry): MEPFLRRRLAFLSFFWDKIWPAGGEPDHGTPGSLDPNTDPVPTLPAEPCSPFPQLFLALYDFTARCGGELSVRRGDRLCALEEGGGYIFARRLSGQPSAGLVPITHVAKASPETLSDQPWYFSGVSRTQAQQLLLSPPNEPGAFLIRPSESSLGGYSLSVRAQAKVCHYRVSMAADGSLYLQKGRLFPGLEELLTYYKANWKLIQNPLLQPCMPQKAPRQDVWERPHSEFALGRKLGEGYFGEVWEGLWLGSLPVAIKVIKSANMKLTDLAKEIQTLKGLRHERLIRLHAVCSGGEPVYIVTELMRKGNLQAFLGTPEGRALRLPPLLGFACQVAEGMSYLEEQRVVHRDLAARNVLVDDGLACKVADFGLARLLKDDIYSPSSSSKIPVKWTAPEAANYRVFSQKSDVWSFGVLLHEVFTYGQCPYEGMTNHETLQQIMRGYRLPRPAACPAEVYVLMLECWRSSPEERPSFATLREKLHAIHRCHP
Sequence of various enzymes (Homo sapiens, UniProt Q9UQ88) (Q9UQ88 whole entry): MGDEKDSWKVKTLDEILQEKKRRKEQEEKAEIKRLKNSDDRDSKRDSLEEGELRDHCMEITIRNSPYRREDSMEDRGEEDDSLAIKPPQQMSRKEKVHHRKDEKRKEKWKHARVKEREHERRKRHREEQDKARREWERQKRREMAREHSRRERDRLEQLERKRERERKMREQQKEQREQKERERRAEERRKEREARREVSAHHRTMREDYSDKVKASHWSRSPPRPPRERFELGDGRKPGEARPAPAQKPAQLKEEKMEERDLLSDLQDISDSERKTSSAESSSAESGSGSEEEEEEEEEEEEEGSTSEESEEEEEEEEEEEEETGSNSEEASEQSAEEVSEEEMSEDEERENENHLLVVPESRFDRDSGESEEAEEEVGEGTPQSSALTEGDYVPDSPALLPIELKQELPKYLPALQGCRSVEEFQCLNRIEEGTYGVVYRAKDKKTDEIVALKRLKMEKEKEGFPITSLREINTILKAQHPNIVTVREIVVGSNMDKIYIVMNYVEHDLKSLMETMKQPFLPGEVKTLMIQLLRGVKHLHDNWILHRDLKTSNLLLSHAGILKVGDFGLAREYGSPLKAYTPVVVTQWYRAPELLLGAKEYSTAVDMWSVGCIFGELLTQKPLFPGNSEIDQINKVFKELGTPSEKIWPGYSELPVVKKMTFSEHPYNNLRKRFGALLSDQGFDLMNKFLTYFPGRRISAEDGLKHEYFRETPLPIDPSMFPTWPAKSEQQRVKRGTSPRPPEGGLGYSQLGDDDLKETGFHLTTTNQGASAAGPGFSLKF
Sequence of various enzymes (Homo sapiens, UniProt Q86YV6) (Q86YV6 whole entry): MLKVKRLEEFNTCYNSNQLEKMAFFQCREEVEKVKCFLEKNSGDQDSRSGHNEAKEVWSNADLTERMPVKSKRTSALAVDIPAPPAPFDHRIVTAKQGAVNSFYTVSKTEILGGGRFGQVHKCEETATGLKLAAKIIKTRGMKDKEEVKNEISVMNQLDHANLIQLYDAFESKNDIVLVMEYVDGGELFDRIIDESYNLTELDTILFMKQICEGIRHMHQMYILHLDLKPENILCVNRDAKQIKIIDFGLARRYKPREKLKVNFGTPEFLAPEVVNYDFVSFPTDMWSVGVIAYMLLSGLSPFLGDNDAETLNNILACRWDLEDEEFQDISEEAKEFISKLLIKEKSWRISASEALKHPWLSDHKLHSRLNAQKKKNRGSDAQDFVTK
Sequence of various enzymes (Homo sapiens, UniProt P11309) (P11309 whole entry): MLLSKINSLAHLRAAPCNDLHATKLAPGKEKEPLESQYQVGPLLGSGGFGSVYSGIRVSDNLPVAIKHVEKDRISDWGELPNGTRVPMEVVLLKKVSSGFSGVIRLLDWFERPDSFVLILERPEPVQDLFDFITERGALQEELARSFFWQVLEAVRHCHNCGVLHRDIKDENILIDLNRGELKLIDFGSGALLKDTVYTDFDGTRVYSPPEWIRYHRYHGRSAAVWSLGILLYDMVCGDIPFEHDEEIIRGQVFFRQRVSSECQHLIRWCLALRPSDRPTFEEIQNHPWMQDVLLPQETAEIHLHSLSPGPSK
Sequence of various enzymes (Homo sapiens, UniProt O15146) (O15146 24-869): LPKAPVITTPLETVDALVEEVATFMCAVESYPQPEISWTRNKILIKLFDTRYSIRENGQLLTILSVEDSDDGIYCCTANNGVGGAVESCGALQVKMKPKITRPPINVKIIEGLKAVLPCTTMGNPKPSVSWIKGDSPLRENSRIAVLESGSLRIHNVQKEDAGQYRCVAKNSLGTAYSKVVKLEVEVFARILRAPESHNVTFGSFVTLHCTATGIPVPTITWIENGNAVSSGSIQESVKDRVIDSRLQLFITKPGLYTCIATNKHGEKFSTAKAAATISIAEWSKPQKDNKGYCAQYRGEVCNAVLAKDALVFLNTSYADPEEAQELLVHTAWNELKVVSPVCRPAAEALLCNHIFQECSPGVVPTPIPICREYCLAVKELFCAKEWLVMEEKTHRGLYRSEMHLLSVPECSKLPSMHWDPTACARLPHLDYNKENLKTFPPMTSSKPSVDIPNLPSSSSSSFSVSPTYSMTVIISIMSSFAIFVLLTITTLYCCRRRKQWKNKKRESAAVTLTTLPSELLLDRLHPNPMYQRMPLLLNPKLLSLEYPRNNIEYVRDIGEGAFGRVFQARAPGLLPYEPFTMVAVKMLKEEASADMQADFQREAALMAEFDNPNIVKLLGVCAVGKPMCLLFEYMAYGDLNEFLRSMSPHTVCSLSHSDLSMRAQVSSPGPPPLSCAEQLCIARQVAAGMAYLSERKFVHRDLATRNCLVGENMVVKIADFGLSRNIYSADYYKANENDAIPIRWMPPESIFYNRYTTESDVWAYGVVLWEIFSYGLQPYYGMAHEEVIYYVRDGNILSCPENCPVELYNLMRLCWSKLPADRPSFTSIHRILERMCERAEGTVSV
Sequence of various enzymes (Homo sapiens, UniProt Q9UPZ9) (Q9UPZ9 whole entry): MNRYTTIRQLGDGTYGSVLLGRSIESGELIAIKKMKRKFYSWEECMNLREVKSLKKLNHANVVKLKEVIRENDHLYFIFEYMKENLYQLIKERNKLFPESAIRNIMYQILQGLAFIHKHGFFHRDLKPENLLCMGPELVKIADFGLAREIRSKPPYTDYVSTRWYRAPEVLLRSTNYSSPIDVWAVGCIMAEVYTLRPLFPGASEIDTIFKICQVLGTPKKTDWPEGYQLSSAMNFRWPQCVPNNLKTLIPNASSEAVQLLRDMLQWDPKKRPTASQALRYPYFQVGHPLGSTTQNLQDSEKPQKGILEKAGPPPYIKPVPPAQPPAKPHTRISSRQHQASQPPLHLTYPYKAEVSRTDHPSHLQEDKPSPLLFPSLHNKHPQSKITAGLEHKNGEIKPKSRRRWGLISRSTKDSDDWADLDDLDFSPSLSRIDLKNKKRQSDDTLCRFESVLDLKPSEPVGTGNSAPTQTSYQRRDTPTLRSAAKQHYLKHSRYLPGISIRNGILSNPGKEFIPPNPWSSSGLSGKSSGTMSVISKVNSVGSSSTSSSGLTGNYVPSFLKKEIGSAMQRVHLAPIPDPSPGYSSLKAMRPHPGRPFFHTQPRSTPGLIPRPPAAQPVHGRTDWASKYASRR

Compound | Ambit profiling: WEE1 (various enzymes [1]) | Ambit profiling: PRKCE (various enzymes [2]) | Ambit profiling: SRMS (various enzymes [3]) | Ambit profiling: ICK (various enzymes [4]) | Ambit profiling: NEK10 (various enzymes [5]) | Ambit profiling: PIM1 (various enzymes [6]) | Ambit profiling: LCK (various enzymes [7]) | Ambit profiling: RIOK3 (various enzymes [8]) | Ambit profiling: MUSK (various enzymes [9]) | Ambit profiling: CDC2L2 (various enzymes [10]) | Ambit profiling: NEK4 (various enzymes [11]) | Ambit profiling: MAP4K3 (various enzymes [12]) | Ambit profiling: PAK2 (various enzymes [13]) | Ambit profiling: NEK9 (various enzymes [14]) | Ambit profiling: RSK1(Kin.Dom.1-N-terminal) (various enzymes [15]) | Ambit profiling: RSK1(Kin.Dom.2-C-terminal) (various enzymes [15]) | Ambit profiling: IKK-epsilon (various enzymes [16]) | Ambit profiling: MYLK4 (various enzymes [17]) | Ambit profiling: ULK1 (various enzymes [18])
CC(C)N1Cc2nn(C)cc2-c2cnc3[nH]cc(c3c2)-c2cn(nc2C(F)(F)F)CCCC1=O [Compound 45, (Z)-5-isopropyl-31-methyl-13-(trifluoromethyl)-11H,21H,31H-5-aza-2(3,5)-pyrrolo[2,3-b]pyridina-1(4,1),3(4,3)-dipyrazolacyclononaphan-6-one] | 73 | 90 | 69 | 0.95 | 97 | 75 | 0.65 | 6 | 89 | 100 | 93 | 18 | 74 | 100 | 17 | 85 | 40 | 100 | 75
COc1c2c(nn1C)CN(C(C)C)C(=O)CCCn1cc(c(C(F)(F)F)n1)-c1c[nH]c3ncc-2cc13 [Compound 50, (Z)-5-isopropyl-35-methoxy-31-methyl-13-(trifluoromethyl)-11H,21H,31H-5-aza-2(3,5)-pyrrolo[2,3-b]pyridina-1(4,1),3(4,3)-dipyrazolacyclononaphan-6-one] | 38 | 30 | 81 | 12 | 87 | 77 | 1.9 | 11 | 90 | 89 | 100 | 16 | 100 | 82 | 3.8 | 81 | 19 | 77 | 93
